From ChEMBL document CHEMBL1132264, “Low-molecular-weight anti-HIV-1 peptides from the amino-terminal sequence of RANTES: possible lead compounds for coreceptor-directed anti-HIV-1 agents” (1999) come the findings set out here.

Where a SMILES comes first, the peptide text is derived from it.

For experiment [1], the system named is Human immunodeficiency virus 1. Kind of experiment: Anti-HIV-1 activity of phytohemagglutininin activated peripheral blood mononuclear cells infected with the macrophage-tropic HIV-1 virus (JRCSF) at 100 nM. The class given is functional.
Experiment [2] has as its system Human immunodeficiency virus 1. The experiment is described as follows: Anti-HIV-1 activity of phytohemagglutininin activated peripheral blood mononuclear cells infected with the macrophage-tropic HIV-1 virus (JRCSF) at 10 nM. The class given is functional.

The inhibition is how much of the control response was suppressed. A lower inhibition goes with little suppression.

In experiment [1], `CC(=O)N[C@@H](CC(=O)O)C(=O)N[C@H](C(=O)N[C@H](C(=O)N1CCC[C@H]1C(=O)N[C@@H](C)C(N)=O)[C@@H](C)O)[C@@H](C)O` (Ac-DTTPA-NH2) came in with an inhibition at 0.1 µM of 46%. The same molecule came in with an inhibition at 0.01 µM in experiment [2] of 43%.
In turn, `CC(=O)N[C@@H](CO)C(=O)N1CCC[C@H]1C(=O)N[C@@H](Cc1ccc(O)cc1)C(=O)N[C@@H](CO)C(=O)N[C@@H](CO)C(=O)N[C@@H](CC(=O)O)C(=O)N[C@H](C(=O)N[C@H](C(=O)N1CCC[C@H]1C(=O)N[C@@H](C)C(N)=O)[C@@H](C)O)[C@@H](C)O` (Ac-SPYSSDTTPA-NH2) gave an inhibition at 0.1 µM in experiment [1] of 69%. Moreover, in experiment [2], the inhibition at 0.01 µM turned out to be 51%.
In experiment [1], `C[C@H](NC(=O)[C@@H]1CCCN1C(=O)[C@@H](NC(=O)[C@@H](NC(=O)[C@@H](N)CC(=O)O)[C@@H](C)O)[C@@H](C)O)C(=O)O` (H-DTTPA-OH) gave an inhibition at 0.1 µM of 29%. In experiment [2], the inhibition at 0.01 µM came out at 18%.
For the molecule `C[C@H](NC(=O)[C@@H]1CCCN1C(=O)[C@@H](NC(=O)[C@@H](NC(=O)[C@H](CC(=O)O)NC(=O)[C@@H](N)CO)[C@@H](C)O)[C@@H](C)O)C(=O)O` (H-SDTTPA-OH), in experiment [1], the inhibition at 0.1 µM amounted to 4%. Also, the inhibition at 0.01 µM in experiment [2] is 9%.
For `C[C@H](NC(=O)[C@@H]1CCCN1C(=O)[C@@H](NC(=O)[C@@H](NC(=O)[C@H](CC(=O)O)NC(=O)[C@H](CO)NC(=O)[C@@H](N)CO)[C@@H](C)O)[C@@H](C)O)C(=O)O` (H-SSDTTPA-OH) the same measures were 22% and 22%.
With `C[C@H](NC(=O)[C@@H]1CCCN1C(=O)[C@@H](NC(=O)[C@@H](N)[C@@H](C)O)[C@@H](C)O)C(=O)O` (H-TTPA-OH), 0.1 µM produced 0% inhibition in experiment [1]. The molecule further displayed an inhibition at 0.01 µM in experiment [2] of 0%.
As for `C[C@H](NC(=O)[C@@H]1CCCN1C(=O)[C@@H](NC(=O)[C@@H](NC(=O)[C@H](CC(=O)O)NC(=O)[C@H](CO)NC(=O)[C@H](CO)NC(=O)[C@@H](N)Cc1ccc(O)cc1)[C@@H](C)O)[C@@H](C)O)C(=O)O` (H-YSSDTTPA-OH), the inhibition at 0.1 µM in experiment [1] is 34%. Further, testing at 0.01 µM in experiment [2] gave an inhibition of 41%.
For `C[C@H](NC(=O)[C@@H]1CCCN1C(=O)[C@@H](NC(=O)[C@@H](NC(=O)[C@H](CC(=O)O)NC(=O)[C@H](CO)NC(=O)[C@H](CO)NC(=O)[C@H](Cc1ccc(O)cc1)NC(=O)[C@@H]1CCCN1)[C@@H](C)O)[C@@H](C)O)C(=O)O` [PYSSDTTPA] (H-PYSSDTTPA-OH) the same measures were 39% and 24%.
